The text below walks through data of patent US12576103B2 (priority 2020, dated 2026).

One series relates to SARS-COV-2. The experiment in a line: microbe, parasite or virus in culture. Format: cell-based. The conditions noted are these: for SARS-CoV-2 infectivity of VERO cells: at concentrations which were not cytotoxic.
The subject of series [1] is virus that contain PBSC sequences. Conditions: in vitro; cited from earlier work.
For series [2] the following is noted: compared with controls. The source says:
Inhalation injury is a major cause of morbidity and mortality in patients with burns. Presence of airways injury adds to the need of fluid supplementation, increases risk of pulmonary complications. Due to many mechanisms involved in pathophysiology the treatment is complex. Among them the formation of fibrin casts inside airways constitutes a prominent element. The material residing in tracheobronchial tree causes ventilation-perfusion mismatch, complicates mechanical ventilation, provides a medium for bacterial growth. Inhaled anticoagulation regimens employing heparin in management of inhalation injury are tested. Simultaneously safety, especially in connection with possible bleeding risk, is measured.
Data are collected in patients receiving nebulized heparin and in historical controls. Data is analyzed separately with 1) all subjects included and 2) with subjects who died/were discharged on the ventilator excluded.

The nature of series [3]: Nebulized anticoagulants in preclinical models for lung injury. The series is classed as in vivo. From the text: Nebulized anticoagulants attenuate pulmonary coagulopathy in preclinical studies using various models for lung injury. Effects on inflammation are less consistent.
Series [4] in a line: Nebulized heparin in patients with pulmonary infection or lung injury (Example 6). The series is classed as in vivo. The source says:
Nebulized heparin also affects various physiologic parameters and other outcomes, in particular during pulmonary infection and inhalation trauma.
Reduction of pulmonary coagulopathy at dosages ≥400,000 U/day heparin is observed.
A single dosage of nebulized heparin prior to cardiopulmonary bypass surgery decreases atelectasis and improves CO2 elimination directly after the operation. Nebulized heparin increases the number of ventilator-free days following administration.

Series [5] is described as follows: Phase 1 clinical study of nebulized heparin in volunteers (Example 4). Here is the method: This example describes the safety and efficacy of nebulized heparin and NAC in normal subjects. A Phase 1 clinical study of nebulized heparin is conducted to investigate the safety of increasing doses of a well-defined lower respiratory tract (LRT) dose of inhaled heparin with regard to pulmonary function and coagulation. Ten volunteers inhale heparin from Sidestream jet nebulizers loaded with 100,000, 200,000, 300,000 or 400,000 International Units (ID) of heparin.

For another series, the system named is VERO cells. The experiment in a line: Non-virus related cytotoxicity in VERO cells by light microscopy. The series is classed as cell-based. The conditions noted are these: at the inhibiting concentrations (LMWH 125 μM, N-acetylcysteine 25 mM). The procedure:
For experiments in which infectivity was being tested, either VERO cells in media or SARS-COV-2 viral particles were incubated with potential inhibitors for one hour. Then viral particles were added to VERO cells and incubation continued for up to seven days. Cytotoxicity and viral-induced cytopathological effects were examined by light microscopy.
In order to test if AT-H201 had antiviral activity against SARS-COV-2 the standard VERO cells assay was performed. Test compounds were incubated either with the virus, to simulate antibody-like surface binding, or with the cells, to simulate either cell surface changes or to act intracellularly. Serial dilutions were conducted and the cytopathic effect (CPE) was observed by microscopy. Non-virus related cytotoxicity, if present was also noted.

A further series relates to ciliary motility. Conditions: cited from earlier work.
The conditions of series [6]: aqueous solution at physiologic pH; cited from earlier work.
Where [7] appears, read: nebulized, presence of pulmonary infection or lung injury.

Entries after “also recorded” stand apart in the source; their conditions may differ.

Regarding `CCN(CCO)CCCC(C)Nc1ccnc2cc(Cl)ccc12` (centres unmarked) [Hydroxychloroquine, hydroxychloroquine], the inhibition at 16 µM with SARS-COV-2 (Severe acute respiratory syndrome coronavirus 2, Vero, at 16 μM, incubation with cells, read-out: Inhibition of Virus Infection) stood at 100%.

heparin: the “infectivity of virus that contain PBSC sequences” value in [1] is “blocks infectivity”. Further, in series [2], the 28-day mortality result is “no differences”, the hospitalization length result was “no differences”, the “lung injury score during the first 7 days post injury” value was “no differences” and the ventilator-associated pneumonia rate result is on record as “no differences”. Further, the systemic coagulation entry in series [3] is “reduce”. Moreover, in series [4] (at dosages ≥100,000 U), the bleeding incidences entry was “without affecting”. In [4] (nebulized), the “dosages at which reduction of pulmonary coagulopathy is observed” value was ≥ 400,000 U/day, the “dosages at which systemic coagulation is affected” value was ≥ 100,000 U, the mortality result is listed as “does not increase” and the “number of ventilator-free days” value is “increases”. Besides, in [4] (nebulized), the “physiological parameters, such as arterial oxygenation or pulmonary compliance” value was “does not affect”; the systemic bleeding result is “does not cause; also recorded: does not result in differences”; the systemic coagulation result is given as “affects”. Also, in series [4] (setting [7]), the “anticoagulant effect in the lungs” value was “has an anticoagulant effect” and the pulmonary inflammation result is “inhibits”. Further, the atelectasis result in series [4] (single nebulized dosage prior to cardiopulmonary bypass surgery) was “decreases”. The CO2 elimination entry in [4] (single nebulized dosage prior to cardiopulmonary bypass surgery, directly after the operation) was “improves”. Further, the “Peak anti-Xa activity” value in [5] (6 h after inhalation of 400,000 ID heparin) is given as 0.113 ID/mL. Besides, the APTT maximum in [5] (6 h after inhalation of 400,000 ID heparin (p=0.05)) worked out at 1.03. The “anti-Xa compared to baseline values” in [5] (after 200,000, 300,000, and 400,000 ID heparin) is recorded as “increases”. Further, the safety of inhalation entry in series [5] (delivery of 32,000 IU to the lower respiratory tract) is given as “can safely be inhaled”. Also, in series [5] (inhaled, 100,000-400,000 IU), the “area under the curve of the anti-Xa activity” value is “increase with increasing doses”. In addition, the pulmonary function result in series [5] (inhaled, 100,000-400,000 IU loaded in nebulizer) is listed as “did not affect”. In addition, in the series on SARS-COV-2, the “SARS-CoV-2 infectivity of VERO cells” value was “inhibited”.

enoxaparin [LMWH]: the Cytotoxicity result with VERO cells was “not seen”. Also, the “inhibition of SARS-COV-2 infectivity” value in the series on SARS-COV-2 (at 125 μM, SARS-COV-2 incubated with compound before VERO cell exposure) is “complete inhibition”. Moreover, in the series on SARS-COV-2 (at nanomolar concentrations, incubated with the virus or with the cells), the “inhibition of viral cytopathic effects / SARS-COV-2 infectivity” value is “completely inhibiting; also recorded: nanomolar efficacy”. In the series on SARS-COV-2 (either incubated with the virus or incubated with the cells), the inhibition of infectivity entry is on record as “effective”.

For rhamnolipid, the “effect of limited exposure of tracheal explants” value in the series on ciliary motility (associated with altered ciliary membranes) is “ciliostasis”.

Take danaparoid: in [3], the systemic coagulation entry is on record as “reduce”.

`CCN(CC)/[N+]([O-])=N/O.CCNCC` [diethylamine/NO]: the “rate of NO release” value in series [6] is less than 3 min.

As for “2-alkyl-4-hydroxyquinolines [pyo compound]”, the “concentration producing ciliostasis / inhibiting ciliary motility” value in the series on ciliary motility was 50 µg/mL.

Take `CC(=O)N[C@@H](CS)C(=O)O` [NAC, N-acetylcysteine]: in the series with VERO cells, the Cytotoxicity result is recorded as “not seen”. Moreover, in the series with SARS-COV-2 (Severe acute respiratory syndrome coronavirus 2, Vero, at 25 mM, incubation with cells, read-out: Inhibition of Virus Infection), the inhibition at 25000 µM came out at 100%. Further, the inhibiting viral entry result in the series with SARS-COV-2 (at 25 mM) is on record as “effective”. The inhibition of infectivity result was “completely inhibit” with SARS-COV-2 (at 25 mM, incubated with cells) and “did not inhibit” in the series on SARS-COV-2 (incubated with SARS-COV-2 (virus)). The “SARS-CoV-2 infectivity of VERO cells” value in the series with SARS-COV-2 was “inhibited”.

Take `NCCN(CCN)/[N+]([O-])=N/O` [diethylenetriamine/NO]: the “rate of NO release” value in [6] is given as “approximately 20 hours”.

Broadly, the inhibition is the share of the control response that was lost under treatment.
